Experimental data taken from the supplement of paper PMC12513837.
± gives the standard deviation of the averaged measurements.

compound: CC(=O)N1CCc2c(c(N3CCCc4cc(-c5cnn(C)c5)c(C(F)F)cc43)nn2C2CCC(CN3CCN(c4ccc5c(c4)C(=O)N(C4CCC(=O)NC4=O)C5=O)CC3)CC2)C1 [CBPD-409]; assay: AUC of viability dose-response curve (relative to vehicle, 8 doses up to 10 µM) (fraction); higher = less sensitive (more viable); extreme values may be limits of the assay
Method: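 PRISM multiplexed pooled barcoded cell line viability screen at the Broad Institute, 887 cancer cell lines treated with CBPD-409 (p300/CBP PROTAC degrader) at 8 concentrations in threefold dilution, top dose 10 µM. The read-out is the area under the dose-response curve of relative viability versus vehicle (n=3). AUC < 0.3 is called strongly sensitive and AUC > 0.8 resistant.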

Going from HSKTC_OVARY to LNCAPCLONEFGC_PROSTATE, the “AUC of viability dose-response curve” value falls from 1 to 0.249.

First: KP2_PANCREAS
Second: NCIH157DM_LUNG
The “AUC of viability dose-response curve” value of the first is lower: 0.512 for the first, 0.559 for the second.

Compared with SH4_SKIN, JM1_HAEMATOPOIETIC_AND_LYMPHOID_TISSUE is lower in “AUC of viability dose-response curve” value: 0.409 for the first, 0.4 for the second.

First: CAOV3_OVARY
Second: YH13_CENTRAL_NERVOUS_SYSTEM
The “AUC of viability dose-response curve” value of the first is lower: 0.648 for the first, 0.75 for the second.

Going from HCC1195_LUNG to DKMG_CENTRAL_NERVOUS_SYSTEM, the “AUC of viability dose-response curve” value falls from 1 to 0.733.

SW1088_CENTRAL_NERVOUS_SYSTEM and SKGI_ENDOMETRIUM are the same in “AUC of viability dose-response curve” value: 1 for the first, 1 for the second.

Going from “MONOMAC6_HAEMATOPOIETIC_AND_LYMPHOID_TISSUE” to 93T449_SOFT_TISSUE, the “AUC of viability dose-response curve” value rises from 0.577 to 1.

Going from “HEL9217_HAEMATOPOIETIC_AND_LYMPHOID_TISSUE” to BDCM_HAEMATOPOIETIC_AND_LYMPHOID_TISSUE, the “AUC of viability dose-response curve” value rises from 0.229 to 0.431.

Compared with SW900_LUNG, HEC6_ENDOMETRIUM is lower in “AUC of viability dose-response curve” value: 0.853 for the first, 0.645 for the second.

Compared with TE14_OESOPHAGUS, ECGI10_OESOPHAGUS is higher in “AUC of viability dose-response curve” value: 0.86 for the first, 0.903 for the second.

First: SW1116_LARGE_INTESTINE
Second: NCIH1792_LUNG
The “AUC of viability dose-response curve” value of the first is higher: 1 for the first, 0.59 for the second.

Going from SW620_LARGE_INTESTINE to MON_SOFT_TISSUE, the “AUC of viability dose-response curve” value falls from 0.559 to 0.486.

First: TGBC18TKB_LARGE_INTESTINE
Second: DV90_LUNG
The “AUC of viability dose-response curve” value of the first is higher: 0.938 for the first, 0.588 for the second.

Compared with SNU1066_UPPER_AERODIGESTIVE_TRACT, JHH4_LIVER is lower in “AUC of viability dose-response curve” value: 1 for the first, 0.997 for the second.

First: NCIH1915_LUNG
Second: KARPAS620_HAEMATOPOIETIC_AND_LYMPHOID_TISSUE
The “AUC of viability dose-response curve” value of the first is higher: 0.697 for the first, 0.449 for the second.

Compared with TE617T_SOFT_TISSUE, CAL78_BONE is lower in “AUC of viability dose-response curve” value: 0.851 for the first, 0.486 for the second.

First: OZ_BILIARY_TRACT
Second: DU4475_BREAST
The “AUC of viability dose-response curve” value of the first is higher: 0.851 for the first, 0.831 for the second.

NCIH1355_LUNG and OVKATE_OVARY are the same in “AUC of viability dose-response curve” value: 1 for the first, 1 for the second.

Compared with MIAPACA2_PANCREAS, NP3_CENTRAL_NERVOUS_SYSTEM is lower in “AUC of viability dose-response curve” value: 1 for the first, 0.802 for the second.

First: U2904_HAEMATOPOIETIC_AND_LYMPHOID_TISSUE
Second: H4_CENTRAL_NERVOUS_SYSTEM
The “AUC of viability dose-response curve” value of the first is higher: 0.826 for the first, 0.625 for the second.

Going from “KMS18_HAEMATOPOIETIC_AND_LYMPHOID_TISSUE” to BHT101_THYROID, the “AUC of viability dose-response curve” value rises from 0.466 to 0.581.

First: EFM19_BREAST
Second: LK2_LUNG
The “AUC of viability dose-response curve” value of the first is higher: 0.575 for the first, 0.178 for the second.

Compared with TTC549_SOFT_TISSUE, GSS_STOMACH is lower in “AUC of viability dose-response curve” value: 0.52 for the first, 0.349 for the second.

NOZ_LIVER and YAPC_PANCREAS are the same in “AUC of viability dose-response curve” value: 1 for the first, 1 for the second.

First: SEM_HAEMATOPOIETIC_AND_LYMPHOID_TISSUE
Second: NCIH196_LUNG
The “AUC of viability dose-response curve” value of the first is lower: 0.347 for the first, 0.755 for the second.

Compared with CHLA06ATRT_SOFT_TISSUE, HEC251_ENDOMETRIUM is lower in “AUC of viability dose-response curve” value: 1 for the first, 0.841 for the second.

Compared with CADOES1_BONE, KALS1_CENTRAL_NERVOUS_SYSTEM is higher in “AUC of viability dose-response curve” value: 0.458 ± 0.12 for the first, 1 for the second.

First: TCCSUP_URINARY_TRACT
Second: EOL1_HAEMATOPOIETIC_AND_LYMPHOID_TISSUE
The “AUC of viability dose-response curve” value of the first is higher: 1 for the first, 0.207 for the second.

First: PLCPRF5_LIVER
Second: PC3_PROSTATE
The “AUC of viability dose-response curve” value of the first is higher: 1 for the first, 0.763 for the second.

Going from RMGI_OVARY to “DND41_HAEMATOPOIETIC_AND_LYMPHOID_TISSUE”, the “AUC of viability dose-response curve” value falls from 0.73 to 0.567.

Compared with KP4_PANCREAS, NCIH2196_LUNG is higher in “AUC of viability dose-response curve” value: 0.625 for the first, 1 for the second.

Going from HT1197_URINARY_TRACT to A253_SALIVARY_GLAND, the “AUC of viability dose-response curve” value falls from 1 to 0.883.

First: TCCPAN2_PANCREAS
Second: CHL1_SKIN
The “AUC of viability dose-response curve” value of the first is higher: 0.875 for the first, 0.148 for the second.

First: COLO668_LUNG
Second: NCIH2023_LUNG
The “AUC of viability dose-response curve” value of the first is lower: 0.615 for the first, 1 for the second.

Going from “OCILY132_HAEMATOPOIETIC_AND_LYMPHOID_TISSUE” to NCIH2110_LUNG, the “AUC of viability dose-response curve” value falls from 1 to 0.703.

Compared with MKN7_STOMACH, GB2_BILIARY_TRACT is higher in “AUC of viability dose-response curve” value: 0.517 for the first, 0.826 for the second.

Going from STM9101_SOFT_TISSUE to TE6_OESOPHAGUS, the “AUC of viability dose-response curve” value falls from 1 to 0.914.

Compared with ICC137_BILIARY_TRACT, HT115_LARGE_INTESTINE is higher in “AUC of viability dose-response curve” value: 0.501 for the first, 1 for the second.

First: LOXIMVI_SKIN
Second: SKUT1_SOFT_TISSUE
The “AUC of viability dose-response curve” value of the first is higher: 0.845 for the first, 0.609 for the second.

NCIH747_LARGE_INTESTINE and HCC1359_LUNG are the same in “AUC of viability dose-response curve” value: 1 for the first, 1 for the second.

First: NCIH23_LUNG
Second: A172_CENTRAL_NERVOUS_SYSTEM
The “AUC of viability dose-response curve” value of the first is lower: 0.771 for the first, 0.797 for the second.

Compared with OVTOKO_OVARY, KYSE70_OESOPHAGUS is higher in “AUC of viability dose-response curve” value: 0.781 for the first, 1 for the second.

First: T98G_CENTRAL_NERVOUS_SYSTEM
Second: VMCUB1_URINARY_TRACT
The “AUC of viability dose-response curve” value of the first is higher: 0.8 for the first, 0.443 for the second.

First: NCIH1703_LUNG
Second: SNU1214_UPPER_AERODIGESTIVE_TRACT
The “AUC of viability dose-response curve” value of the first is higher: 0.78 for the first, 0.739 for the second.

First: C32_SKIN
Second: SNU61_LARGE_INTESTINE
The “AUC of viability dose-response curve” value of the first is lower: 0.562 for the first, 0.875 for the second.

Compared with KD_SOFT_TISSUE, RH36_SOFT_TISSUE is higher in “AUC of viability dose-response curve” value: 0.299 for the first, 0.779 for the second.

First: CALU6_LUNG
Second: KMRC1_KIDNEY
The “AUC of viability dose-response curve” value of the first is lower: 0.928 for the first, 1 for the second.

Going from JEG3_PLACENTA to UACC257_SKIN, the “AUC of viability dose-response curve” value rises from 0.307 to 1.

MCAS_OVARY and LN229_CENTRAL_NERVOUS_SYSTEM are the same in “AUC of viability dose-response curve” value: 1 for the first, 1 for the second.

Compared with HEL_HAEMATOPOIETIC_AND_LYMPHOID_TISSUE, CCFSTTG1_CENTRAL_NERVOUS_SYSTEM is higher in “AUC of viability dose-response curve” value: 0.267 for the first, 0.992 for the second.

NCIH1876_LUNG and KP3_PANCREAS are the same in “AUC of viability dose-response curve” value: 1 for the first, 1 for the second.

Going from JL1_PLEURA to HLF_LIVER, the “AUC of viability dose-response curve” value rises from 0.532 to 1.

First: DL_SOFT_TISSUE
Second: CCLFPEDS0003T_SOFT_TISSUE
The “AUC of viability dose-response curve” value of the first is higher: 0.471 for the first, 0.392 for the second.

Going from SW837_LARGE_INTESTINE to YD8_UPPER_AERODIGESTIVE_TRACT, the “AUC of viability dose-response curve” value falls from 0.72 to 0.641.

Going from SNU407_LARGE_INTESTINE to HUH1_LIVER, the “AUC of viability dose-response curve” value rises from 0.502 to 0.882.

With ICC4_BILIARY_TRACT the “AUC of viability dose-response curve” value was 0.706.
